Read-outs that look alike come from different tables or passages of the source.
Target: T1, MMP-8 (Homo sapiens, UniProt P22894)
T1 construct: catalytic domain (Met80-Gly242) of human neutrophil collagenase; made in house
Test: Inhibition of MMPs (HNC catalytic domain), fluorogenic heptapeptide substrate DNP-Pro-Leu-Gly-Leu-Trp-Ala-D-Arg-NH2
Format: biochemical
Method: In order to determine the inhibition of MMPs, for example HNC, the catalytic domain (isolation and purification see for example Schnierer, S., Kleine, T., Gote, T., Hillemann, A., Knäuper, V., Tschesche, H., Biochem. Biophys. Res. Commun. (1993) 191, 319-326) is incubated with inhibitors having various concentrations. Subsequently, the initial reaction rate in the conversion of a standard substrate is measured in a manner analogous to Grams F. et al., FEBS 335 (1993) 76-80).
The results are evaluated by plotting the reciprocal reaction rate against the concentration of the inhibitor. The inhibition constant (Ki) is obtained as the negative section of the abscissis by the graphical method according to Dixon, M., Biochem. J. (1953) 55, 170-202.
The synthetic collagenase substrate is a heptapeptide which is coupled, at the […], with DNP (dinitrophenol). Said DNP residue quenches by steric hindrance the fluorescence of the adjacent tryptophane of the heptapeptide. After cleavage of a tripeptide which includes the DNP group, the tryptophane fluorescence increases. The proteolytic cleavage of the substrate therefore can be measured by the fluorescence value.
The assay was performed at 25° C. in a freshly prepared 50 mM Tris buffer (pH 8.0) treated with dithiozone to remove traces of heavy metals. 4 mM CaCl2 was added and the buffer saturated wtih argon. Stock solutions of adamalysin II were prepared by centrifugation of the protein from an ammonium sulfate suspension and subsequent dissolution in the assay buffer. Stock solutions of collagenase were diluted with the assay buffer. Enzyme concentrations were determined by uv measurements (ε280=2.8 10^4 M1 cm^−1, ε288: 2.2 10^4 M^−1 cm^−1) and the stock solutions were stored in the cold. This solution was diluted 1:100 to obtain the final 16 nM assay concentration. The fluorogenic substrate DNP-ProLeu-Gly-LeuTrp-Ala-D-Arg-NH2 with a Km of 52 μM was used at a concentration of 21.4 μM; for the Ki determination a 12.8 μM concentration has also been used. Substrate fluorescence was measured at an excitation and emission wavelength of λ=320 and 420 nm, respectively, on a spectrofluorimeter (Perkin Elmer, Model 650-40) equipped with a thermostated cell holder. Substrate hydrolysis was monitored for 10 min. immediately after adding the enzyme. All reactions were performed at least in triplicate. The Ki values—of the inhibitors were calculated from the intersection point of the straight lines obtained by the plots of vo/vi vs. [concentration of inhibitor], whereas IC50 values were calculated from plots of vi/vo [concentration of inhibitor] by non-linear regression with simple robust weighting.
50 mM Tris/HCl pH 7.6 (Tris=Tris-(hydroxymethyl)-aminomethan)
100 mM NaCl/10 mM CaCl 2/5% MeOH (ff necessary)
Enzyme: 8 nM catalytic domain (Met80-Gly242) of human neutrophil collagenase
Substrate: 10 microM DNP-Pro-Leu-Gly-Leu-Trp-Ala-D-Arg-NH2
A solution of the enzyme and inhibitor in assay buffer (25° C.) was prepared. The reaction was started directly by giving the substrate into the solution. The cleavage of the flourogenic substrate was followed by flourescence spectroscopy with an excitation and emision wavelength of 280 and 350 nm, respectively. The IC50 value was calculated as the inhibitor concentration, which is necessary to decrease the velocity of the reaction to the half in comparison to the reaction without inhibitor.

[1] = MMP-8 (catalytic domain of human neutrophil collagenase), 25° C., read-out: IC-50

T1 sequence (P22894 100-262 limits assumed): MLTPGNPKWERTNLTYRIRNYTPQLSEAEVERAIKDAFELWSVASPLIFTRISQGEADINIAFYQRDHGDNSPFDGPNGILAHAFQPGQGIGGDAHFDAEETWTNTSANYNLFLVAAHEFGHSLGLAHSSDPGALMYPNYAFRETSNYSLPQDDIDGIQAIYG

Row | Compound | IC50 [1] | IC50
1 | 5-Octyl-5-[N-(2-hydroxyethyl)piperazinyl]barbituric Acid [example 23] | 110 nM | –
2 | O=C1NC(=O)C(c2ccccc2)(N(Cc2ccccc2)C(=O)Cc2cccc(Br)c2)C(=O)N1 [preferred no. 120, N-Benzyl-2-(3-bromo-phenyl)-N-(2,4,6-trioxo-5-phenyl-hexahydro-pyrimidin-5-yl)-acetamide] | – | 150 nM
3 | O=C1NC(=O)C(NC(=O)c2cccc3c2C(=O)c2ccccc2-3)(c2ccccc2)C(=O)N1 [example 32.74, 9-Oxo-9H-fluorene-1-carboxylic acid (2,4,6-trioxo-5-phenyl-hexadro-pyrimidin-5-yl)-amide] | 890 nM | –
4 | 5-Decyl-5-[N-(2-hydroxyethyl)piperazinyl]barbituric Acid [example 28] | 320 nM | –
5 | O=C1NC(=O)C(c2ccc(-c3ccccc3)cc2)(N2CCN(c3ccc([N+](=O)[O-])cc3)CC2)C(=O)N1 [example 26, 5-(4′-Biphenyl)-5-[N-(4-nitrophenyl)piperazinyl]barbituric Acid] | 15 nM | –
6 | O=C1NC(=O)C(c2ccccc2)(N2CCN(c3ccc([N+](=O)[O-])cc3)CC2)C(=O)N1 [example 32.77, 5-[4-(4-Nitro-phenyl)-piperazin-1-yl)-5-phenyl-pyrimidine-2,4,6-trione] | – | 160 nM
7 | 5-[N-(2-Hydroxyethyl)piperazinyl]-5-(4-hydroxyphenyl)barbituric Acid [example 20] | 860 nM | –
8 | CCCCCCCCC1(N2CCN(c3ccc([N+](=O)[O-])cc3)CC2)C(=O)NC(=O)NC1=O [preferred no. 118] | 60 nM | –

From patent publication US6472396B1, “Barbituric acid derivatives, processes for their production and pharmaceutical agents containing these compounds” (Roche Diagnostics GmbH, priority 1995, dated 2002)
